Experiment [1] has as its system maternal sera (antibodies). Description: ELISA peptide-binding of maternal sera (Example 6). The arrangement: species or system human. To be noted: for Number of Non-Transmitters which bound to peptide / Percent of Non-Transmitters which bound to peptide: N = 12; for Number of Transmitters which bound to peptide / Percent of Transmitters which bound to peptide: N = 4. The text has this: A total of 86 maternal sera samples obtained from patients of the Hospital of the University of Pennsylvania during the third trimester of pregnancy were used in this study 58 (67%) were non-transmitters and 28 (33%) were transmitters. This is approximately consistent with the national average (i.e. a rate of transmission between 25-30%). Transmission status was based upon serological or molecular diagnosis of children (at an age of greater than 15 months) born to these mothers. Because of the constraints on the volume of serum available for many of these samples, not all sera were analyzed with all the peptides. However, each sera sample was run with at least 40 peptides.
These peptides are of an average length of 16 amino acids and covered the entire external as well as the transmembrane glycoprotein of HIV-1. Peptide binding was analyzed by ELISA essentially as described in Example 3.
The results of one study, using some of the peptides identified above among others, is provided in Table 12, which illustrates the number and percent of non-transmitters which bound to the tested peptide. The percentage designation refers to the percentage of sera samples which bound to a particular peptide. A value of greater than 0% means that at least one of the samples bound to the particular peptides.

Experiment [2] concerns maternal HIV+ sera (antibodies). Description: RIA / ELISA binding of maternal HIV+ sera to gp120 and gp41 peptides (Example 3). The arrangement: species or system human. In a few lines:
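Maternal sera, diluted 1:50 and 1:500, were bound overnight at 4°C to peptides immobilized at 10 μg/ml (pH 9.6 carbonate) and blocked with 1% BSA. Read-out was ¹²⁵I-labelled anti-human IgG counts or HRP-TMB OD450. Signal with peptide minus without was expressed relative to seronegative serum.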

Where [3] appears, read: Serum No. 1, Non-Transmission Group.
Where [4] appears, read: Serum No. 2, Non-Transmission Group.
Where [5] appears, read: Serum No. 3, Non-Transmission Group.
The mark [6] stands for this setting: Serum No. 4, Transmission Group.
[7] abbreviates: Serum No. 5, Transmission Group.
[8] abbreviates: Serum No. 6, Non-Transmission Group.
Where [9] appears, read: Serum No. 7, Non-Transmission Group.
Setting [10] is: Serum No. 8, Non-Transmission Group.
Where [11] appears, read: Serum No. 9, Non-Transmission Group.
The mark [12] stands for this setting: Serum No. 10, Transmission Group.
Setting [13] is: Serum No. 11, Non-Transmission Group.
Setting [14] is: Serum No. 12, Non-Transmission Group.
[15] abbreviates: Serum No. 13, Transmission Group.
Where [16] appears, read: Serum No. 14, Transmission Group.
Setting [17] is: Serum No. 15, Transmission Group.
Setting [18] is: Serum No. 16, Non-Transmission Group.
The mark [19] stands for this setting: Serum No. 17, Non-Transmission Group.
Setting [20] is: Serum No. 18, Non-Transmission Group.
The mark [21] stands for this setting: Serum No. 19, Transmission Group.
The mark [22] stands for this setting: Serum No. 20, Non-Transmission Group.

With “41-11: gp41 peptide, amino acids 541-564, HIV strain MN, SEQ ID NO: 157 (QARQLLSGIVQQQNNLLRAIEAQQ) [Peptide 41-11]”, in experiment [1], the “Number of Non-Transmitters which bound to peptide” value was found to be 0, the “Percent of Non-Transmitters which bound to peptide” value turned out to be 0%, the “Number of Transmitters which bound to peptide” value came to 0 and the “Percent of Transmitters which bound to peptide” value turned out to be 0%.
Regarding “41-13: gp41 peptide, amino acids 616-632, HIV strain BRU, SEQ ID NO: 153 (NASWSNKSLEQIWNNMT) [Peptide 41-13]”, in experiment [1], the “Number of Non-Transmitters which bound to peptide” value is listed as 0, the “Percent of Non-Transmitters which bound to peptide” value was found to be 0%, the “Number of Transmitters which bound to peptide” value came to 0 and the “Percent of Transmitters which bound to peptide” value is 0%.
In the case of VTRIVELLGRRGWEALKYWW [Peptide 57], the “Binding of maternal HIV+ serum to peptide (sera/NHS ratio)” value (“Binding … (sera/NHS ratio)” below) is reported as “- (specific OD450 or cpm of sera sample binding to peptide divided by the specific OD450 or cpm of NHS sample binding to peptide, which value is less than 2)” in experiment [2] (setting [3]); “- (specific OD450 or cpm of sera sample binding to peptide divided by the specific OD450 or cpm of NHS sample binding to peptide, which value is less than 2)” in experiment [2] (setting [4]); “- (specific OD450 or cpm of sera sample binding to peptide divided by the specific OD450 or cpm of NHS sample binding to peptide, which value is less than 2)” in experiment [2] (setting [5]); “- (specific OD450 or cpm of sera sample binding to peptide divided by the specific OD450 or cpm of NHS sample binding to peptide, which value is less than 2)” in experiment [2] (setting [6]); “- (specific OD450 or cpm of sera sample binding to peptide divided by the specific OD450 or cpm of NHS sample binding to peptide, which value is less than 2)” in experiment [2] (setting [7]); “- (specific OD450 or cpm of sera sample binding to peptide divided by the specific OD450 or cpm of NHS sample binding to peptide, which value is less than 2)” in experiment [2] (setting [8]). The “Binding … (sera/NHS ratio)” value in experiment [2] (setting [9]) is given as “- (specific OD450 or cpm of sera sample binding to peptide divided by the specific OD450 or cpm of NHS sample binding to peptide, which value is less than 2)”; in experiment [2] (setting [10]), “++ (which value is greater than 3)”; in experiment [2] (setting [11]), “- (specific OD450 or cpm of sera sample binding to peptide divided by the specific OD450 or cpm of NHS sample binding to peptide, which value is less than 2)”; in experiment [2] (setting [12]) it was “- (specific OD450 or cpm of sera sample binding to peptide divided by the specific OD450 or cpm of NHS sample binding to peptide, which value is less than 2)”; in experiment [2] (setting [13]), “- (specific OD450 or cpm of sera sample binding to peptide divided by the specific OD450 or cpm of NHS sample binding to peptide, which value is less than 2)”; in experiment [2] (setting [14]), “- (specific OD450 or cpm of sera sample binding to peptide divided by the specific OD450 or cpm of NHS sample binding to peptide, which value is less than 2)”. Also, the “Binding … (sera/NHS ratio)” value is reported as “- (specific OD450 or cpm of sera sample binding to peptide divided by the specific OD450 or cpm of NHS sample binding to peptide, which value is less than 2)” in experiment [2] (setting [15]); “- (specific OD450 or cpm of sera sample binding to peptide divided by the specific OD450 or cpm of NHS sample binding to peptide, which value is less than 2)” in experiment [2] (setting [16]); “- (specific OD450 or cpm of sera sample binding to peptide divided by the specific OD450 or cpm of NHS sample binding to peptide, which value is less than 2)” in experiment [2] (setting [17]); “- (specific OD450 or cpm of sera sample binding to peptide divided by the specific OD450 or cpm of NHS sample binding to peptide, which value is less than 2)” in experiment [2] (setting [18]); “- (specific OD450 or cpm of sera sample binding to peptide divided by the specific OD450 or cpm of NHS sample binding to peptide, which value is less than 2)” in experiment [2] (setting [19]); “- (specific OD450 or cpm of sera sample binding to peptide divided by the specific OD450 or cpm of NHS sample binding to peptide, which value is less than 2)” in experiment [2] (setting [20]). Further, the “Binding … (sera/NHS ratio)” value in experiment [2] (setting [21]) is on record as “- (specific OD450 or cpm of sera sample binding to peptide divided by the specific OD450 or cpm of NHS sample binding to peptide, which value is less than 2)”; in experiment [2] (setting [22]), “+ (which value is between 2 to 3)”.
Regarding YDTEVHNVWATHACV [Peptide 94], the “Number of maternal sera binding to peptide” value in experiment [2] (20 maternal sera) was “two”. For the same substance, in experiment [2] (Example 3), the “Binding of maternal sera to peptide (in words)” value is reported as “Several maternal serum samples had reactivity”. The “Binding … (sera/NHS ratio)” value is on record as “++ (which value is greater than 3)” in experiment [2] (setting [3]); “- (specific OD450 or cpm of sera sample binding to peptide divided by the specific OD450 or cpm of NHS sample binding to peptide, which value is less than 2)” in experiment [2] (setting [4]); “++ (which value is greater than 3)” in experiment [2] (setting [5]); “- (specific OD450 or cpm of sera sample binding to peptide divided by the specific OD450 or cpm of NHS sample binding to peptide, which value is less than 2)” in experiment [2] (setting [6]); “- (specific OD450 or cpm of sera sample binding to peptide divided by the specific OD450 or cpm of NHS sample binding to peptide, which value is less than 2)” in experiment [2] (setting [7]); “- (specific OD450 or cpm of sera sample binding to peptide divided by the specific OD450 or cpm of NHS sample binding to peptide, which value is less than 2)” in experiment [2] (setting [8]). Besides, the “Binding … (sera/NHS ratio)” value in experiment [2] (setting [9]) was “- (specific OD450 or cpm of sera sample binding to peptide divided by the specific OD450 or cpm of NHS sample binding to peptide, which value is less than 2)”; in experiment [2] (setting [10]), “- (specific OD450 or cpm of sera sample binding to peptide divided by the specific OD450 or cpm of NHS sample binding to peptide, which value is less than 2)”; in experiment [2] (setting [11]) it was “- (specific OD450 or cpm of sera sample binding to peptide divided by the specific OD450 or cpm of NHS sample binding to peptide, which value is less than 2)”; in experiment [2] (setting [12]) it was “- (specific OD450 or cpm of sera sample binding to peptide divided by the specific OD450 or cpm of NHS sample binding to peptide, which value is less than 2)”; in experiment [2] (setting [13]), “- (specific OD450 or cpm of sera sample binding to peptide divided by the specific OD450 or cpm of NHS sample binding to peptide, which value is less than 2)”; in experiment [2] (setting [14]), “- (specific OD450 or cpm of sera sample binding to peptide divided by the specific OD450 or cpm of NHS sample binding to peptide, which value is less than 2)”. In addition, the “Binding … (sera/NHS ratio)” value in experiment [2] (setting [15]) is recorded as “- (specific OD450 or cpm of sera sample binding to peptide divided by the specific OD450 or cpm of NHS sample binding to peptide, which value is less than 2)”; in experiment [2] (setting [16]), “- (specific OD450 or cpm of sera sample binding to peptide divided by the specific OD450 or cpm of NHS sample binding to peptide, which value is less than 2)”; in experiment [2] (setting [17]), “- (specific OD450 or cpm of sera sample binding to peptide divided by the specific OD450 or cpm of NHS sample binding to peptide, which value is less than 2)”; in experiment [2] (setting [18]), “- (specific OD450 or cpm of sera sample binding to peptide divided by the specific OD450 or cpm of NHS sample binding to peptide, which value is less than 2)”; in experiment [2] (setting [19]), “- (specific OD450 or cpm of sera sample binding to peptide divided by the specific OD450 or cpm of NHS sample binding to peptide, which value is less than 2)”; in experiment [2] (setting [20]) it was “- (specific OD450 or cpm of sera sample binding to peptide divided by the specific OD450 or cpm of NHS sample binding to peptide, which value is less than 2)”. The “Binding … (sera/NHS ratio)” value was “- (specific OD450 or cpm of sera sample binding to peptide divided by the specific OD450 or cpm of NHS sample binding to peptide, which value is less than 2)” in experiment [2] (setting [21]) and “- (specific OD450 or cpm of sera sample binding to peptide divided by the specific OD450 or cpm of NHS sample binding to peptide, which value is less than 2)” in experiment [2] (setting [22]). Further, the “Number of binding maternal sera from the transmission group” value in experiment [2] (vertical transmission group (7 sera)) was “neither”.
